The source of these data is ChEMBL document CHEMBL1287689, “Sulfonamide derivatives of styrylheterocycles as a potent inhibitor of COX-2-mediated prostaglandin E2 production” (Bioorg Med Chem Lett, 2010).

The structures appear in SMILES notation. Activity calls are given as the source filed them. No cut-off for these calls is given here. Where only a bound is given, the exact number is not on record here.

One assay addresses T1, Prostaglandin G/H synthase 2 (Mus musculus, UniProt Q05769).
T1 sequence (Q05769 whole entry): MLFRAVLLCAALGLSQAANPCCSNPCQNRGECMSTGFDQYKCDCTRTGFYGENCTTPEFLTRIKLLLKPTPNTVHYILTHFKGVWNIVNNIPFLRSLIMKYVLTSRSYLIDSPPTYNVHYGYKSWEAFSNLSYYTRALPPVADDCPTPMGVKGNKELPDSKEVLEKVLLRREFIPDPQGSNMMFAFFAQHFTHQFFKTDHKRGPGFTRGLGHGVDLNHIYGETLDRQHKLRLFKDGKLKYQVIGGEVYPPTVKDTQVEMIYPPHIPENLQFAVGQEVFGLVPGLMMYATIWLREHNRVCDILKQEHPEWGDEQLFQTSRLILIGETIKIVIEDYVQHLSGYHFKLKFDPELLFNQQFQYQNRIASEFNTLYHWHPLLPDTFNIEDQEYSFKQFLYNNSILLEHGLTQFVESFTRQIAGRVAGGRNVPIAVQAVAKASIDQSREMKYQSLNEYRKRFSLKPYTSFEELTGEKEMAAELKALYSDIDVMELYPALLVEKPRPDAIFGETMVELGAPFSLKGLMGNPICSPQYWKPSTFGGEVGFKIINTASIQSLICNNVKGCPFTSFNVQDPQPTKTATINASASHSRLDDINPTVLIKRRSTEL
In words: Inhibition of COX-2 mediated PGE2 production in LPS-induced mouse RAW264.7 cells. The assay is classed as cell-based.
A word on the IC50: it is the midpoint of a concentration-inhibition curve. The molecule `NS(=O)(=O)c1ccc(/C=C/c2ccoc2)cc1` registered an IC50 above 50000 nM.
Still for that read-out and setting: the result for `NS(=O)(=O)c1ccc(/C=C/c2cccs2)cc1` reads 13 nM; that for `CS(=O)(=O)c1ccc(/C=C/c2cccs2)cc1`, 380 nM; that for `CS(=O)(=O)c1ccc(/C=C/c2ccco2)cc1`, 1180 nM.
`NS(=O)(=O)c1ccc(/C=C/c2ccsc2)cc1` returned an IC50 of 440 nM.
In turn, `CS(=O)(=O)c1ccc(/C=C/c2ccsc2)cc1` registered a 50% inhibitory concentration (IC50) of 520 nM.
`NS(=O)(=O)c1ccc(/C=C/c2ccco2)cc1`: the IC50 stood at 18300 nM.
In the case of `CS(=O)(=O)c1ccc(/C=C/c2ccoc2)cc1`, the IC50 was above 50000 nM.

The subject of another assay is RAW264.7. In words: Inhibition of COX-2 gene expression in LPS-stimulated mouse RAW264.7 cells after 24 hrs by RT-PCR analysis. The format is functional, cell-based.
`NS(=O)(=O)c1ccc(/C=C/c2cccs2)cc1`: the inhibition entry was “Active”.
